How the values were obtained:
β2-adrenergic receptor = biological target: T1, β2-adrenergic receptor (Homo sapiens, UniProt P07550); assay: Functional cellular cAMP (HTRF) assay, CHO cells expressing β2-ARs; assay type: cell-based; settings: relative to procaterol
T1 construct: expressed in transfected cells; host or cells: CHO
Method: (§1) The potency and maximal effect of vibegron and mirabegron for β3-adrenergic receptors and the selectivity for each […] receptor were determined. Functional cellular assays for vibegron and mirabegron activity were performed using Chinese hamster ovary (CHO) cells expressing β1- or β2-ARs and human embryonic kidney (HEK) 293 cells expressing β3-ARs. Cells were incubated with vibegron, mirabegron, or the appropriate control (isoproterenol for β1 and β3, procaterol for β2). Responses were quantified using homogeneous time-resolved fluorescence of cyclic adenosine monophosphate. Half-maximal effective concentration (EC50) and maximum response (Emax) values were determined by nonlinear least-squares regression analysis.

β3-adrenergic receptor = biological target: T2, β3-adrenergic receptor (Homo sapiens, UniProt P13945); assay: Functional cellular cAMP (HTRF) assay, HEK293 cells expressing β3-ARs; assay type: cell-based
T2 construct: expressed in transfected cells; host or cells: HEK293
T2 sequence (P13945 whole entry): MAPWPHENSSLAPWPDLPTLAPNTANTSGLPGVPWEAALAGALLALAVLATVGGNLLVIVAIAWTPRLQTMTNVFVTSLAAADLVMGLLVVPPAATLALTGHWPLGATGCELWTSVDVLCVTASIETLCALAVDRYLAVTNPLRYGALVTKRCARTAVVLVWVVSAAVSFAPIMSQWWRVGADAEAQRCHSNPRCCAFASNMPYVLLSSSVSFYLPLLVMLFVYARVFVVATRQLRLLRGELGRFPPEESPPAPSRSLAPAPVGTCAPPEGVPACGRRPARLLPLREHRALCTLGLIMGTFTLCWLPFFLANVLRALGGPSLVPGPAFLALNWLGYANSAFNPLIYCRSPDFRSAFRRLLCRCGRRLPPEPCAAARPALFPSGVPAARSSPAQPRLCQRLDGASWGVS
Method: as §1

β1-adrenergic receptor = biological target: T3, β1-adrenergic receptor (Homo sapiens, UniProt P08588); assay: Functional cellular cAMP (HTRF) assay, CHO cells expressing β1-ARs; assay type: cell-based; settings: relative to isoproterenol
T3 construct: expressed in transfected cells; host or cells: CHO
T3 sequence (P08588 whole entry): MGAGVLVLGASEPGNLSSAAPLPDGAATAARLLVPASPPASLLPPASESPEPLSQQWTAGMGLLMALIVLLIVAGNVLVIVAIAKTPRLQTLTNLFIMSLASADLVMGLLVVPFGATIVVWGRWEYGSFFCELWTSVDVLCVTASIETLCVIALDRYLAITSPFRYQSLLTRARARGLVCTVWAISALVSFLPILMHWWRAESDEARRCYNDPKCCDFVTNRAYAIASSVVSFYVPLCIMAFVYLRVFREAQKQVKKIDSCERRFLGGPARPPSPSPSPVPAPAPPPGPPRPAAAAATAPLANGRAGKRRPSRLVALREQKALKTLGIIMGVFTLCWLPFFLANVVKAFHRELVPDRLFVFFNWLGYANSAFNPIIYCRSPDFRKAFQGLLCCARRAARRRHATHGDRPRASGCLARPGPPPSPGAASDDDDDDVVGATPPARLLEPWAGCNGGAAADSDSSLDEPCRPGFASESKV
Method: as §1

[1] = test system: subjects with NYHA class II-III HF and LVEF <40%; settings: BEAT-HF trial; cited from earlier work
[2] = test system: elderly patients with heart failure, including a subgroup with HFpEF; settings: cited from earlier work

T1 sequence (P07550 whole entry): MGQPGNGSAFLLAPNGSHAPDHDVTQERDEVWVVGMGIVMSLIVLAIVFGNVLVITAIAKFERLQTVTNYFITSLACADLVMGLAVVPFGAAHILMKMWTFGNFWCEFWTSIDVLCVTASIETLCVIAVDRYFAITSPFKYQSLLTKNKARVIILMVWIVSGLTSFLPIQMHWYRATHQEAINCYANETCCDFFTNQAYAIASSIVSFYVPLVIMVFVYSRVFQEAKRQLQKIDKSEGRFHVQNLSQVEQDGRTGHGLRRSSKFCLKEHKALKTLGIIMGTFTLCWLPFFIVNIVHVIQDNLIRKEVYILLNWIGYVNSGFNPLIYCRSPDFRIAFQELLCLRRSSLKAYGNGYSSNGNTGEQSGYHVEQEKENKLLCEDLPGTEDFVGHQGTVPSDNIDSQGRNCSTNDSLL

| β2-adrenergic activity (% Activity) (β2-adrenergic receptor) [%] | β3-adrenergic activity relative to isoproterenol (% Activity) (β3-adrenergic receptor; 10 μM, HEK293 cells) [%] | Emax (β3-adrenergic receptor; HEK293, estimated by nonlinear least-squares regression, read-out: Emax (maximum response) at the β3-AR) [%] | EC50 (β3-adrenergic receptor; HEK293 cells expressing β3-ARs, cAMP, read-out: Mean (SEM) EC50 at the β3-AR) [nM] | β1-adrenergic activity (% Activity) (β1-adrenergic receptor) [%] | Compound | Primary endpoint (change in LVEF) [1] | Treatment of heart failure [2] |
| --- | --- | --- | --- | --- | --- | --- | --- |
| 15 | 88 | 80.4 | 10 | 3 | Nc1nc(CC(=O)Nc2ccc(CCNC[C@H](O)c3ccccc3)cc2)cs1 [Mirabegron] | failed to meet the primary endpoint |  |
|  |  |  |  |  | OC(CNCC(O)C1CCc2cc(F)ccc2O1)C1CCc2cc(F)ccc2O1 (stereo not shown) [nebivolol] |  | some success in treating heart failure in elderly patients |
